From publication PMC9403976, “Elucidating the path to Plasmodium prolyl-tRNA synthetase inhibitors that overcome halofuginone resistance” (Nature Communications, 2022)
Where “and” joins values, the source holds several entries; their conditions need not be identical. Equal values may be shown once. Read-outs that look alike come from different tables or passages of the source.

Columns and labels:
P. falciparum Dd2-2D4 = assay: P. falciparum asexual blood stage (ABS) growth assay, SYBR Green, 72 h, wild-type parasites; format: cell-based, Plasmodium falciparum; details: Log[inhibitor] (M) -7.408
PfcProRS = target: T1, PfcProRS (Plasmodium falciparum, UniProt Q8I5R7); format: binding; details: for dose-response signal (normalized), SI Fig 8: single replicates
T1 construct: made in house; host or cells: E. coli SoluBL-21

HsProRS = HsProRS (Homo sapiens, UniProt P07814); assay: TR-FRET ligand displacement assay with tracer MAT379 (CoraFluor-1-Halo and anti-His6 antibody formats); format: binding; set-up: made in house; host or cells: E. coli SoluBL-21; details: for TR-FRET dose-response, normalized signal (SI Fig 11): individual replicates
HsProRS, sequence (P07814 996-1512): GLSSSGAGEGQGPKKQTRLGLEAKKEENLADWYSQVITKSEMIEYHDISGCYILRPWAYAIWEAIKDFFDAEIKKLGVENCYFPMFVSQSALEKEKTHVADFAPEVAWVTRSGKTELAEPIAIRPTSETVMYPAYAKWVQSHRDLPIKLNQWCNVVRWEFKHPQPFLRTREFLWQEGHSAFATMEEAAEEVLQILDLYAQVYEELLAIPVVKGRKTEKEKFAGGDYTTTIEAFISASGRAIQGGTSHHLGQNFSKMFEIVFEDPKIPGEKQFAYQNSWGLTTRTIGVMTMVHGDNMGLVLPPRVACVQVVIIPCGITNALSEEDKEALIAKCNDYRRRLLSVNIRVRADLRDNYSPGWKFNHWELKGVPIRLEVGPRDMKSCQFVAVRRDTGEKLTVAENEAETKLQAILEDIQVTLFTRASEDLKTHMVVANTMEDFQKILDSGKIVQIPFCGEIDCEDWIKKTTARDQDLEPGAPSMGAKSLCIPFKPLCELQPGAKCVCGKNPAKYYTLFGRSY

T1 sequence (Q8I5R7 249-746): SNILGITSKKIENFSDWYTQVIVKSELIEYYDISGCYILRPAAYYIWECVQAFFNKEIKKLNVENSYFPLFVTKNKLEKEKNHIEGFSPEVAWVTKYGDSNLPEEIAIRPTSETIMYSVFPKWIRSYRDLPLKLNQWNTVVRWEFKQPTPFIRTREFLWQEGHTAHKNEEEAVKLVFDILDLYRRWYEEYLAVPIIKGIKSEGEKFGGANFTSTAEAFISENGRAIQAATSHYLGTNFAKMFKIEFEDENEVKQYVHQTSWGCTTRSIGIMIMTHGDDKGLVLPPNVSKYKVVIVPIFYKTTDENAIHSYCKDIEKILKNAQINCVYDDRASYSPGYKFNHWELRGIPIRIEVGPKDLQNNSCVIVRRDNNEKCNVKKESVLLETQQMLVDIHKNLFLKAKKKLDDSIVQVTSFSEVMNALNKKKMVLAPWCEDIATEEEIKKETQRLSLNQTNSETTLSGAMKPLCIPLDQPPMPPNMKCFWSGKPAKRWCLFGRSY

O=C(NC1Cc2ccccc2C1)c1nccnc1NC(=O)N1CCNCC1 [compound 14]
dose-response value per replicate (SI Fig 2g) (P. falciparum Dd2-2D4): 106
dose-response signal (normalized), SI Fig 8 (PfcProRS; Log[inhibitor] (M) -5.000): 3.52E-01 and 3.02E-01 and 4.80E-01
dose-response signal (normalized), SI Fig 8 (PfcProRS; Log[inhibitor] (M) -5.301): 6.97E-01 and 5.97E-01 and 7.91E-01
dose-response signal (normalized), SI Fig 8 (PfcProRS; Log[inhibitor] (M) -5.601): 7.61E-01 and 7.19E-01 and 8.51E-01
dose-response signal (normalized), SI Fig 8 (PfcProRS; Log[inhibitor] (M) -5.904): 9.39E-01 and 1.01E+00 and 9.69E-01
dose-response signal (normalized), SI Fig 8 (PfcProRS; Log[inhibitor] (M) -6.208): 9.51E-01 and 9.80E-01 and 1.13E+00
dose-response signal (normalized), SI Fig 8 (PfcProRS; Log[inhibitor] (M) -6.509): 1.06E+00 and 1.12E+00 and 9.92E-01
dose-response signal (normalized), SI Fig 8 (PfcProRS; Log[inhibitor] (M) -6.796): 9.94E-01 and 1.03E+00 and 9.99E-01
dose-response signal (normalized), SI Fig 8 (PfcProRS; Log[inhibitor] (M) -7.108): 1.00E+00 and 1.01E+00 and 1.05E+00
dose-response signal (normalized), SI Fig 8 (PfcProRS; Log[inhibitor] (M) -7.409): 1.05E+00 and 9.56E-01 and 1.00E+00
dose-response signal (normalized), SI Fig 8 (PfcProRS; Log[inhibitor] (M) -7.710): 1.05E+00 and 1.12E+00 and 1.08E+00
dose-response signal (normalized), SI Fig 8 (PfcProRS; Log[inhibitor] (M) -8.000): 9.77E-01 and 1.04E+00 (2×)
dose-response signal (normalized), SI Fig 8 (PfcProRS; Log[inhibitor] (M) -8.301): 1.09E+00 and 1.08E+00 and 1.13E+00
dose-response signal (normalized), SI Fig 8 (PfcProRS; Log[inhibitor] (M) -8.602): 9.19E-01 and 1.01E+00 and 1.04E+00
dose-response signal (normalized), SI Fig 8 (PfcProRS; Log[inhibitor] (M) -9.000): 9.80E-01 and 1.02E+00 and 1.08E+00
dose-response signal (normalized), SI Fig 8 (PfcProRS; Log[inhibitor] (M) -9.301): 1.02E+00 and 1.01E+00 and 8.73E-01
PfcProRS -- best Kd (PfcProRS; SI Fig 16a, values on -log scale): 5.788
IC50 (HsProRS): > 10000 nM
Kd (HsProRS; HsProRS - best Kd, SI Fig 16a, values on -log scale): 347 nM
normalized TR-FRET ligand displacement signal, dose-response replicates (SI Fig 6) (HsProRS; Log[inhibitor] (M) -5.000): 7.56E-01 and 7.38E-01 and 6.65E-01
TR-FRET dose-response, normalized signal (SI Fig 11) (HsProRS; Log[inhibitor] (M) -5.000): 5.37E-01 and 5.66E-01 and 5.12E-01
normalized TR-FRET ligand displacement signal, dose-response replicates (SI Fig 6) (HsProRS; Log[inhibitor] (M) -5.301): 8.27E-01 and 7.77E-01 and 8.29E-01
TR-FRET dose-response, normalized signal (SI Fig 11) (HsProRS; Log[inhibitor] (M) -5.301): 7.06E-01 and 7.34E-01 and 7.02E-01
normalized TR-FRET ligand displacement signal, dose-response replicates (SI Fig 6) (HsProRS; Log[inhibitor] (M) -5.601): 9.28E-01 and 8.85E-01 and 8.45E-01
TR-FRET dose-response, normalized signal (SI Fig 11) (HsProRS; Log[inhibitor] (M) -5.601): 8.30E-01 and 8.51E-01 and 8.70E-01
normalized TR-FRET ligand displacement signal, dose-response replicates (SI Fig 6) (HsProRS; Log[inhibitor] (M) -5.904): 9.66E-01 and 1.02E+00 and 8.66E-01
TR-FRET dose-response, normalized signal (SI Fig 11) (HsProRS; Log[inhibitor] (M) -5.904): 9.48E-01 and 8.82E-01 and 9.17E-01
normalized TR-FRET ligand displacement signal, dose-response replicates (SI Fig 6) (HsProRS; Log[inhibitor] (M) -6.208): 9.85E-01 and 9.86E-01 and 1.00E+00
TR-FRET dose-response, normalized signal (SI Fig 11) (HsProRS; Log[inhibitor] (M) -6.208): 9.32E-01 and 8.78E-01 and 9.58E-01
normalized TR-FRET ligand displacement signal, dose-response replicates (SI Fig 6) (HsProRS; Log[inhibitor] (M) -6.509): 1.15E+00 and 1.03E+00 and 9.65E-01
TR-FRET dose-response, normalized signal (SI Fig 11) (HsProRS; Log[inhibitor] (M) -6.509): 9.64E-01 and 9.63E-01 and 9.66E-01
normalized TR-FRET ligand displacement signal, dose-response replicates (SI Fig 6) (HsProRS; Log[inhibitor] (M) -6.796): 1.11E+00 and 1.13E+00 and 1.12E+00
TR-FRET dose-response, normalized signal (SI Fig 11) (HsProRS; Log[inhibitor] (M) -6.796): 1.02E+00 and 9.73E-01 and 9.90E-01
normalized TR-FRET ligand displacement signal, dose-response replicates (SI Fig 6) (HsProRS; Log[inhibitor] (M) -7.108): 1.08E+00 and 1.05E+00 and 9.83E-01
TR-FRET dose-response, normalized signal (SI Fig 11) (HsProRS; Log[inhibitor] (M) -7.108): 9.95E-01 and 1.03E+00 and 9.34E-01
normalized TR-FRET ligand displacement signal, dose-response replicates (SI Fig 6) (HsProRS; Log[inhibitor] (M) -7.409): 9.81E-01 and 8.66E-01 and 9.44E-01
TR-FRET dose-response, normalized signal (SI Fig 11) (HsProRS; Log[inhibitor] (M) -7.409): 9.68E-01 and 9.66E-01 and 9.87E-01
normalized TR-FRET ligand displacement signal, dose-response replicates (SI Fig 6) (HsProRS; Log[inhibitor] (M) -7.710): 1.08E+00 and 1.01E+00 (2×)
TR-FRET dose-response, normalized signal (SI Fig 11) (HsProRS; Log[inhibitor] (M) -7.710): 1.03E+00 (2×) and 9.36E-01
normalized TR-FRET ligand displacement signal, dose-response replicates (SI Fig 6) (HsProRS; Log[inhibitor] (M) -8.000): 9.08E-01 and 9.09E-01 and 9.75E-01
TR-FRET dose-response, normalized signal (SI Fig 11) (HsProRS; Log[inhibitor] (M) -8.000): 1.02E+00 and 1.03E+00 and 9.52E-01
normalized TR-FRET ligand displacement signal, dose-response replicates (SI Fig 6) (HsProRS; Log[inhibitor] (M) -8.301): 9.22E-01 and 9.86E-01 and 9.29E-01
TR-FRET dose-response, normalized signal (SI Fig 11) (HsProRS; Log[inhibitor] (M) -8.301): 1.02E+00 and 9.93E-01 and 9.56E-01
normalized TR-FRET ligand displacement signal, dose-response replicates (SI Fig 6) (HsProRS; Log[inhibitor] (M) -8.602): 9.82E-01 and 1.05E+00 and 8.99E-01
TR-FRET dose-response, normalized signal (SI Fig 11) (HsProRS; Log[inhibitor] (M) -8.602): 9.98E-01 and 9.57E-01 and 9.65E-01
normalized TR-FRET ligand displacement signal, dose-response replicates (SI Fig 6) (HsProRS; Log[inhibitor] (M) -9.000): 1.07E+00 and 1.04E+00 and 1.00E+00
TR-FRET dose-response, normalized signal (SI Fig 11) (HsProRS; Log[inhibitor] (M) -9.000): 1.00E+00 and 9.49E-01 and 9.70E-01
normalized TR-FRET ligand displacement signal, dose-response replicates (SI Fig 6) (HsProRS; Log[inhibitor] (M) -9.301): 9.76E-01 and 9.94E-01 and 1.01E+00
TR-FRET dose-response, normalized signal (SI Fig 11) (HsProRS; Log[inhibitor] (M) -9.301): 9.76E-01 and 1.00E+00 and 9.87E-01
HsProRS % signal at 10 μM (HsProRS; no added proline/ATP (-), 10 μM): 53.8%
